EP0127864A2, “D-homo-4,9,16-estratrienes, their preparation and pharmaceutical compositions containing them” (SCHERING AKTIENGESELLSCHAFT, priority 1983, dated 1984)

Tested on: Ratte
Assay: Abortive effect in pregnant rats (measure of antigestagenic activity)
Assay type: in vivo
Conditions: for n Abort / n Gesamt: subcutan, d5 p.c. to d7 p.c., uteri examined d9 p.c., absence of implants counted as abortion
Excerpt: Zur Kennzeichnung der antigestagenen Wirkung wurde die abortive Wirkung bestimmt.
Die Versuche wurden an weiblichen Ratten im Gewicht von ca. 200 g durchgeführt. Nach erfolgter Anpaarung wurde der Schwangerschaftsbeginn durch Nachweis von Spermien in Vaginalabstrichen gesichert. Der Tag des Spermiennachweises gilt als Tag 1 der Gravidität (= dl p.c.).
Die Behandlung der Tiere mit der jeweils zu testenden Substanz bzw. dem Lösungsmittel erfolgte nach der Nidation der Blastocysten von d5 p.c. bis d7 p.c.
An d9 p.c. wurden die Tiere getötet und die Uteri auf Implantate und Resorptionsstellen hin untersucht. Von allen Uteri wurden Fotos angefertigt. Das Fehlen von Implantaten wurde als Abort gewertet.
Die Testsubstanzen wurden in einem Benzylbenzoat-Rizinusöl-Gemisch (Verhältnis 1 + 9) gelöst. Das Vehikelvolumen pro Einzeldosis betrug 0,2 ml. Die Behandlung erfolgte subcutan.

| SMILES | Aborte (Dosierung 1,0 mg) | n Abort / n Gesamt (Dosis 1.0 mg/Tier/Tag) | n Abort / n Gesamt (Dosis 3.0 mg/Tier/Tag) | n Abort / n Gesamt (Dosis 10.0 mg/Tier/Tag) | Wirksamkeit (Abortauslösung) (Dosierung 1,0 mg, result in words) | n Abort / n Gesamt (Dosis 0.3 mg/Tier/Tag) |
| --- | --- | --- | --- | --- | --- | --- |
| CC#C[C@]1(O)CC[C@H]2[C@@H]3CCC4=CC(=O)CCC4=C3[C@@H](c3ccc(N(C)C)cc3)C[C@@]21C [B, 11ß-(4-Dimethylaminophenyl)-17ß-hydroxy-17a-(propin-1-yl)-4,9(10)-estradien-3-on, reference compound] | 50% | 2/4 | 4/4 | 4/4 |  |  |
| CC#C[C@]1(O)C=CC[C@H]2[C@@H]3CCC4=CC(=O)CCC4=C3[C@@H](c3ccc(N(C)C)cc3)C[C@@]21C [A, 11ß-(4-Dimethylaminophenyl)-17aß-hydroxy-17aα-(1-propinyl)-U-homo-4,9,16-estratrien-3-on] |  | 4/4 | 4/4 | 4/4 | voll wirksam | 2/4 |
